Laboratory results as given in patent US20130029964A1, “[5, 6] HETEROCYCLIC COMPOUND” (DAIICHI SANKYO COMPANY, LIMITED, priority 2010, published 2013).

System: ST2 cells, murine bone marrow-derived stromal cells
Assay: Osteoblast differentiation test (ALP activity)
Type: cell-based
Conditions: Mus musculus, ST-2, 96 h, at 0.1 μg/mL, control group (0.1% DMSO) = 100%, four days of culturing, read-out: alkaline phosphatase activity
Description: ST2 cells, murine bone marrow-derived stromal cells, (obtained from RIKEN) were used.
In this test, α-MEM media (obtained from GIBCO BRL Cat. No. 10370-021) containing 10% (v/v) of inactivated calf serum (obtained from Hyclone Laboratories, Inc.) and 1% (v/v) of Penicillin-Streptomycin Liquid (obtained from GIBCO BRL Cat. No. 15140-122) (hereinbelow, abbreviated as 10%-FBS-αMEM) were used. In this test, all culturing was performed in a CO2 incubator (37° C., 95% humidity, 5% CO2).
The aforementioned cells were detached with 2 mL of a 0.25% trypsin solution (obtained from GIBCO BRL Cat. No. 15050-065) and dispersed in 10 mL of 10%-FBS-αMEM. Subsequently, the cells were collected by centrifugation (25° C., 800 rpm, five minutes). Then, a cell suspension containing 40000 of the cells/mL of 10%-FBS-αMEM was prepared. The cell suspension was then dispensed into 96-well plates (the product of Falcon), 100 μL per well, at a density of 4000 cells/well, followed by culturing for 24 hours. To the wells, except for the below-described well containing a control group, the compound was dispensed at final concentrations of 0.01, 0.03, 0.1, and 0.3 μg/ml. To the well of a control group, DMSO was dispensed at a final concentration of 0.1% (v/v). After four days of culturing, the activity of alkaline phosphatase (ALP) was measured in each group.
The measurement of ALP activity was performed as follows. That is, the medium in each well of the culture plates was completely removed. Each well was then washed by dispensing 100 μL of Dulbecco's phosphate buffer (obtained from GIBCO BRL Cat. No. 14190-144) and then removing it. A cell lysate solution containing 10 mM MgCl2 and 2% (v/v) TritonX-100 (Sigma) was prepared and dispensed at 50 μL/well, followed by stirring at room temperature for five minutes. An ALP substrate solution containing 50 mM diethanolamine (Wako Pure Chemical Industries, Ltd., Cat. No. 099-03112) and 20 mM p-nitrophenyl phosphate (Wako Pure Chemical Industries, Ltd., Cat. No. 147-02343) was prepared and dispensed at 50 μL/well, and the plates were left to stand at room temperature for 10 minutes. Subsequently, absorbance was measured by a microplate reader (Bio-Rad Laboratories, Inc.). Setting the measurement value of the control group of each plate at 100%, alkaline phosphatase activity (increase (%)) in the test compound-addition group was calculated, which was assessed as the degree of osteoblast differentiation.

| Compound | activity at 0.1 µg/mL [%] |
| --- | --- |
| c1ccn2ncc(-c3ccc(OCCOC4CCOCC4)cc3)c2c1 [Example 147] | ≥ 200 |
| N#Cc1ccc2ncc(-c3ccc(OCCOC4CCOCC4)cc3)n2c1 [Example 148] | ≥ 200 |
| c1coc(-c2ccc3ncc(-c4ccc(OCCOC5CCOCC5)cc4)n3c2)n1 [Example 150] | ≥ 200 |
